This is an account of results in patent US20250250232A1, “AZETIDINE DERIVATIVES AND USE THEREOF AS DIPEPTIDYL PEPTIDASE 1 INHIBITORS” (CHIESI FARMACEUTICI S.P.A., priority 2022, published 2025).

SMILES strings stand for the structures.

The target in assay [1] is T1, human DPP1 enzyme (Homo sapiens (Human), UniProt P53634). The assay can be described thus: Activity on human recombinant DPP1 isolated enzyme assay (H-Gly-Arg-AMC cleavage, fluorescence). As to conditions: 0.35 nM human DPP1, 300 μM H-Gly-Arg-AMC, 30 min pre-incubation at 25° C., pH 5.0; for IC50: read-out: h DPP1 pIC50 (converted). The format is biochemical. As for the experimental part:
Human DPP1 enzyme activity was determined by measuring release of the fluorophore aminomethyl coumarin (AMC) following enzymatic cleavage of the dipeptide substrate H-Gly-Arg-AMC. Assays were performed in black 384 well plates in 25 mM piperazine buffer, pH 5.0, containing 50 mM NaCl, 0.01% (v/v) Triton X100, 5 mM DTT with 0.35 nM human DPP1 enzyme, 300 μM H-Gly-Arg-AMC substrate (˜Km concentration) and test compounds at 0.51-10000 nM concentration range. Human DPP1 was pre-incubated with test compounds for 30 minutes at 25° C. prior to substrate incubation for a further 40 minutes at 25° C. Enzyme activity was determined by measuring fluorescence of the AMC product at excitation and emission wavelengths of 380 nm and 460 nm using a BMG LABTECH PHERA star plate reader. Test compound potencies are reported in Table 15 as pIC50 values generated from 4-parameter sigmoidal curve fitting of the measured concentration-inhibition responses.

For assay [2], the target named is T1, human DPP1 enzyme. The settings on record: values from K Doyle, J. Med. Chem. 2016, Table 3; cited from earlier work.

T1 sequence (P53634 231-394): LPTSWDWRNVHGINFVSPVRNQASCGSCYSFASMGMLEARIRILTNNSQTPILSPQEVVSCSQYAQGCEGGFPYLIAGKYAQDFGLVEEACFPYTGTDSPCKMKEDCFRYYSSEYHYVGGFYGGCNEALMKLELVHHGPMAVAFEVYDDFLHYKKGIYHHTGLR
T1 sequence (P53634 25-134): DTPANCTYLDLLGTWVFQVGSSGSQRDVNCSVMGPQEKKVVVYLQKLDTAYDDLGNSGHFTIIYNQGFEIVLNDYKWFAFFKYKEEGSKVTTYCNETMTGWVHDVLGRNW
T1 sequence (P53634 395-463): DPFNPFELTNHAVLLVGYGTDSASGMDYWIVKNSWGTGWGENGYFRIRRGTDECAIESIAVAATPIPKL

For the molecule `COC1(C(=O)N[C@H](C#N)Cc2ccc(-c3ccc4oc(=O)n(C)c4c3)cc2F)CNC1` [Example 36, (S)-N-(1-cyano-2-(2-fluoro-4-(3-methyl-2-oxo-2,3-dihydrobenzo[d]oxazol-5-yl)phenyl)ethyl)-3-methoxyazetidine-3-carboxamide], the “h DPP1 pIC50” value on human DPP1 enzyme [1] is given as “++++ (h DPP1 pIC50 higher than 8)”. The same measure, in the same setting: the result for `COC1(C(=O)N[C@H](C#N)Cc2ccc(-c3ccc4oc(=O)n(C)c4c3)cc2F)CN(C)C1` [Example 37, (S)-N-(1-cyano-2-(2-fluoro-4-(3-methyl-2-oxo-2,3-dihydrobenzo[d]oxazol-5-yl)phenyl)ethyl)-3-methoxy-1-methylazetidine-3-carboxamide] reads “++++ (h DPP1 pIC50 higher than 8)”. For `CN1CC(O)(C(=O)N[C@H](C#N)Cc2ccc(-c3ccc(C#N)cc3)cc2)C1` [Example 38, (S)-N-(1-cyano-2-(4′-cyano-[1,1′-biphenyl]-4-yl)ethyl)-3-hydroxy-1-methylazetidine-3-carboxamide], at human DPP1 enzyme [1], the IC50 is 10 to 100 nM. Still for that read-out and setting: as for `CN1CC(C(=O)N[C@H](C#N)Cc2ccc(-c3ccc4c(c3)C3(CCN(C5COC5)CC3)OC4)cc2F)(C(F)F)C1` [Example 39, (S)-N-(1-cyano-2-(2-fluoro-4-(1′-(oxetan-3-yl)-3H-spiro[isobenzofuran-1,4′-piperidin]-6-yl)phenyl)ethyl)-3-(difluoromethyl)-1-methylazetidine-3-carboxamide], the figure is 10 to 100 nM. Same read-out and setting: as for `CN1CC(C(=O)N[C@H](C#N)Cc2ccc(-c3ccc(C#N)cc3)cc2F)(C(F)F)C1` [Example 40, (S)-N-(1-cyano-2-(4′-cyano-3-fluoro-[1,1′-biphenyl]-4-yl)ethyl)-3-(difluoromethyl)-1-methylazetidine-3-carboxamide], the figure is 10 to 100 nM. With `COC1(C(=O)N[C@H](C#N)Cc2ccc(-c3ccc(C#N)cc3)cc2F)CN(C)C1` [Example 41, (S)-N-(1-cyano-2-(4′-cyano-3-fluoro-[1,1′-biphenyl]-4-yl)ethyl)-3-methoxy-1-methylazetidine-3-carboxamide], the “h DPP1 pIC50” value at human DPP1 enzyme [1] is given as “++++ (h DPP1 pIC50 higher than 8)”. `COC1(C(=O)NC(C#N)Cc2ncc(-c3ccc(C#N)cc3)cc2F)CNC1` (centres unmarked) [Example 42, N-(1-cyano-2-(5-(4-cyanophenyl)-3-fluoropyridin-2-yl)ethyl)-3-methoxyazetidine-3-carboxamide]: the IC50 at human DPP1 enzyme [1] is 100 to 1000 nM.

As to `CCCN1CC(OC)(C(=O)N[C@H](C#N)Cc2ccc(-c3ccc(C#N)cc3)cc2)C1` [Example 46, (S)-N-(1-cyano-2-(4′-cyano-[1,1′-biphenyl]-4-yl)ethyl)-3-methoxy-1-propylazetidine-3-carboxamide], the IC50 on human DPP1 enzyme [1] is 1000 to 10000 nM. In the case of `COC1(C(=O)N[C@H](C#N)Cc2ccc(-c3ccc4c(c3)C3(CCN(C5COC5)CC3)OC4)cc2F)CN(C)C1` [Example 47, (S)-N-(1-cyano-2-(2-fluoro-4-(1′-(oxetan-3-yl)-3H-spiro[isobenzofuran-1,4′-piperidin]-6-yl)phenyl)ethyl)-3-methoxy-1-methylazetidine-3-carboxamide], the “h DPP1 pIC50” value on human DPP1 enzyme [1] is on record as “++++ (h DPP1 pIC50 higher than 8)”. On the same count and under the same terms, as for `CN1C(=O)Cc2ccc(-c3ccc(C[C@@H](C#N)NC(=O)C4(CF)CNC4)c(F)c3)cc21` [Example 48, (S)-N-(1-cyano-2-(2-fluoro-4-(1-methyl-2-oxoindolin-6-yl)phenyl)ethyl)-3-(fluoromethyl)azetidine-3-carboxamide], the entry is “++++ (h DPP1 pIC50 higher than 8)”. The same measure, in the same setting: as for `COC1(C(=O)N[C@H](C#N)Cc2ccc(-c3ccc4c(c3)N(C)C(=O)C4)cc2F)CNC1` [Example 49, (S)-N-(1-cyano-2-(2-fluoro-4-(1-methyl-2-oxoindolin-6-yl)phenyl)ethyl)-3-methoxyazetidine-3-carboxamide], the entry is “++++ (h DPP1 pIC50 higher than 8)”; as for `COC1(C(=O)N[C@H](C#N)Cc2ccc(-c3ccc4c(c3)N(C)C(=O)C4)cc2F)CN(C)C1` [Example 50, (S)-N-(1-cyano-2-(2-fluoro-4-(1-methyl-2-oxoindolin-6-yl)phenyl)ethyl)-3-methoxy-1-methylazetidine-3-carboxamide], “++++ (h DPP1 pIC50 higher than 8)”. Turning to `COC1(C(=O)N[C@H](C#N)Cc2ccc(-c3ccc(C#N)cc3)cc2)CN(CC(C)C)C1` [Example 51, (S)-N-(1-cyano-2-(4′-cyano-[1,1′-biphenyl]-4-yl)ethyl)-1-isobutyl-3-methoxyazetidine-3-carboxamide], on human DPP1 enzyme [1], the IC50 was 1000 to 10000 nM. Same read-out and setting: as for `CCN1CC(OC)(C(=O)N[C@H](C#N)Cc2ccc(-c3ccc(C#N)cc3)cc2)C1` [Example 52, (S)-N-(1-cyano-2-(4′-cyano-[1,1′-biphenyl]-4-yl)ethyl)-1-ethyl-3-methoxyazetidine-3-carboxamide], the figure is 100 to 1000 nM. Take `Cn1c(=O)oc2ccc(-c3ccc(C[C@@H](C#N)NC(=O)C4(C(F)F)CNC4)cc3)cc21` [compound 14, (S)-N-(1-cyano-2-(4-(3-methyl-2-oxo-2,3-dihydrobenzo[d]oxazol-5-yl)phenyl)ethyl)-3-(difluoromethyl)azetidine-3-carboxamide]: on human DPP1 enzyme [2], the “pIC50 in the human recombinant DPP1 isolated enzyme assay (state of the art)” value (“pIC50 … (state of the art)” below) is reported as “less than 5”. For the molecule `N#C[C@H](Cc1ccc(-c2ccc3c(c2)C2(CCN(C4COC4)CC2)OC3)cc1F)NC(=O)C1(C(F)F)CNC1` [compound 15, (S)-N-(1-cyano-2-(2-fluoro-4-(1′-(oxetan-3-yl)-3H-spiro[isobenzofuran-1,4′-piperidin]-6-yl)phenyl)ethyl)-3-(difluoromethyl)azetidine-3-carboxamide], the “pIC50 … (state of the art)” value on human DPP1 enzyme [2] is reported as “less than 5”.

As to `CN1C(=O)Cc2ccc(-c3ccc(C[C@@H](C#N)NC(=O)C4(C(F)F)CNC4)c(F)c3)cc21` [compound 16, (S)-N-(1-cyano-2-(2-fluoro-4-(1-methyl-2-oxoindolin-6-yl)phenyl)ethyl)-3-(difluoromethyl)azetidine-3-carboxamide], on human DPP1 enzyme [2], the “pIC50 … (state of the art)” value was 5.9.
